Results published in patent publication US8431617B2, “Use of resveratrol for the preparation of a medicament useful for the treatment of influenza virus infections” (Sigma-Tau Industrie Farmaceutiche Riunite S.p.A., priority 2002, dated 2013).

What was measured:
[1] = tested on: mRNAs for the viral proteins HA and M; assay: PCR for messenger RNAs of late viral proteins in infected MDCK cells; format: cell-based, influenza virus A/PR8/34, subtype H1N1
[2] = tested on: influenza virus A/PR8/34, subtype H1N1 (virus PR8); assay: Replication of influenza virus PR8 in MDCK cells, virus released in supernatant titrated as haemagglutinating units; format: cell-based
[3] = tested on: influenza virus PR8 viral proteins (H0-H1, H2, M, NP, P); assay: Synthesis of viral proteins in infected MDCK cells by Western blotting; format: cell-based, influenza virus A/PR8/34, subtype H1N1; conditions: 15 and 20 μg/ml
Description: Viral proteins were analysed by Western blotting. At different times after viral infection, the cells were lysed using special lysis buffers. Equal quantities of proteins were then loaded onto polyacrylamide gel in SDS. After electrophoresis, the proteins were transferred onto a nitrocellulose membrane and treated with anti-influenza polyclonal antibody. After incubation and suitable washings, the filters were treated with a second antibody conjugated to peroxidase and the viral proteins were highlighted by means of the chemiluminescence technique (ECL), using a peroxidase substrate (luminol) which, on reacting with the enzyme, emits a light and makes an impression on the autoradiography plate. The cells were treated with resveratrol at various concentrations (5, 10, 15 and 20 μg/ml). To allow better imaging of the viral proteins, the electrophoresis run was done using a 10% polyacrylamide gel (FIG. 7A) and gradient gel (FIG. 7B).

[4] = tested on: MDCK cells; assay: Toxicity of resveratrol on confluent monolayers of uninfected MDCK cells (cell count, Trypan Blue viability)
Description: The cells were cultured in T-25 vials or in 6- and 24-well Libno plates in RPMI culture medium added with L-glutamine, penicillin-streptomycin and 10% foetal calf serum (FCS) and maintained at 37° C. in a 5% CO2 atmosphere. The confluent cell monolayers were detached with a 0.25% trypsin solution, centrifuged and reseeded in fresh medium. The cell count was done using a haemocytometer and cell viability was determined by means of exclusion with Trypan Blue viability staining (0.02%).
For the purposes of determining the possible degree of toxicity on the MDCK cells, the latter were treated with resveratrol after the confluence of the monolayer, at various concentrations (5, 10, 15, 20 and 40 μg/ml).

[5] = tested on: MDCK cells; assay: Assay of intracellular glutathione (GSH) in MDCK cells by HPLC; format: cell-based, dog
Description: The glutathione assay has been performed as a result of the formation of S-carboxymethyl-derivatives of free thiols with iodoacetic acid followed by conversion of the NH2 terminal groups to 2,4-dinitrophenyl derivatives after the reaction of 1-fluoro-2,4-dinitrobenzene (Anal. Biochemn., 106, 55-62, 1980).
The MDCK cells were detached by means of the scraping technique. Later, the cells were centrifuged at 1,200 rpm for 5 minutes. The cells were washed twice in PBS and the precipitate, obtained after centrifuging, was resuspended in 200 μl of buffer. The cell lysates, obtained with repeated cycles of freezing and thawing, were deproteinised by means of precipitation in 5% metaphosphoric acid. After centrifuging at 22,300 g, the low-molecular-weight thiols present in the supernatant were derivatised with 10% iodoacetic acid v/v and neutralised with NaHCO3 in powder form. After 1 h of incubation in the dark a solution of 1.5% 1-chloro-2,4-dinitrobenzene v/v was added (1.5 ml/98.5 ml of absolute ethanol). […] The protein concentration was calculated using the Lowry method (Biol. Chem., 193, 265-75, 1951). […] The reducing reaction product is detected by the formation of stained compounds by reaction with the aromatic amino acids of the proteins. […]

[6] = tested on: viral proteins NP and M; assay: Localisation of proteins NP and M in infected MDCK cells by immunofluorescence; format: cell-based, influenza virus A/PR8/34, subtype H1N1; conditions: 20 μg/ml
Description: Viral replication was also assessed with analysis of the occurrence of viral antigens on the surface of the infected cell by means of immunofluorescence. Analysis of viral proteins by immunofluorescence was done with a fluorescence microscope using a filter emitting in the green (FITC) (lens 100×). MDCK cells, cultured on cover slides for 24 h were infected and, 18 h after infection, were fixed with methanol-acetone 1:1 at 4° C. for 15 min. Later, the cells were washed twice in PBS and permeabilised with a 0.1% solution of PBS-TRITON for 5 min. Blockade of the aspecific sites was done with 1% milk dissolved in PBS for 30 min at ambient temperature. Later, specific monoclonal antibodies (mouse anti-influenza NP and mouse anti-influenza M) to viral proteins were added, diluted 1:50 in PBS for 30 min at ambient temperature. The primary antibody was detected with a secondary antibody conjugated to fluorescein (anti-mouse FITC, Sigma). […]

[7] = tested on: influenza virus A/PR; assay: Survival of mice infected intranasally with influenza virus A/PR; format: in vivo, Balb/c AnCrIBR mice; conditions: 1 mg/kg, intraperitoneal, daily for 7 days
Description: Four-week-old female inbred Balb/c AnCrIBR mice were used. Resveratrol, dissolved in PBS, was administered to the animals via the intraperitoneal route at various times after infection with the influenza virus. The reservatrol concentrations were chosen so as to obtain a range of doses in the animals' blood similar to the effective range in vitro (10 to 20 μg/ml).
The mice were inoculated intranasally (i.n.) with a suspension containing the influenza virus A/PR at a multiplicity of infection of 2 HAU/mouse, after light anaesthesia with ether. On the basis of previous experimental data, the influenza virus at this multiplicity of infection produces haemorrhagic pneumonia that leads to the death of 80% of the animals by one week after infection. For the purposes of monitoring the infection trend, both virological and immunological parameters were monitored in addition to studying survival curves.
The efficacy of resveratrol was studied in an experimental influenza virus infection model in the mouse. In this model, intranasal inoculation of the virus causes severe haemorrhagic pneumonia which leads to the death of the animals within 7 to 10 days of infection. The experimental design envisages evaluation of the therapeutic efficacy of the study substance, as assessed on the basis of survival of the infected animals. […]

[8] = tested on: MDCK cells; assay: Apoptosis in MDCK cells by FACS after labelling with propidium iodide; format: cell-based, dog; conditions: for apoptosis: antiviral doses of the drug
Description: As regards the analysis of apoptosis. MDCK cells were infected with the virus PR8. After viral adsorption, the cells were treated with resveratrol at various concentrations (5, 10, 15 and 20 μg/ml). Twenty-four hours after infection, the cells were detached using a 0.25% trypsin solution and then centrifuged at 1,200 rpm for 5 min, The precipitate thus obtained was analysed by means of the FACS technique after labelling with propidium iodide.
For the purposes of assessing whether the induction of cell death by apoptosis was involved in the antiviral effect of reservatrol, MDCK cells were infected or not with the virus and treated with the substance at the various concentrations. Cell death by apoptosis was evaluated by FACS after labelling with propidium iodide. […] The infection in itself induced apoptosis in 12% of infected cells. Although the addition of increasing doses caused an increase in the mortality, no significant difference was observed between infected cells and uninfected cells treated with antiviral doses of the drug (35 and 37% apoptosis, respectively).

In the case of 3,4,5-trihydroxystilbene [resveratrol], the “release of messenger RNAs for the late viral proteins (HA and M)” value ([1]; 20 μg/ml, evaluated 8 hours after infection) is reported as “causes a delay in the release of messenger RNAs”, the “synthesis of the mRNAs for HA and M” value ([1]; 20 h after infection) is reported as “not affected by treatment with resveratrol” and the “time of addition after infection at which viral replication was significantly inhibited” value ([2]; 20 μg/ml, added 0, 3, 6 and 9 h after infection, HAU/ml 24 h after infection) is reported as at most 3 h. For the same substance, the “duration of treatment needed for inhibition of replication” value ([2]; 20 μg/ml, added immediately after infection, removed at 0, 3, 6, 9 and 24 h) was “at least 9 hours”, the “reduction of viral titre compared to infected and untreated controls” value ([2]; 20 μg/ml, added post-infection, MDCK cells, 0.2 m.o.i.) was 87% and the “viral replication after 24 h, treatment only during viral adsorption” value ([2]; 20 μg/ml, for one hour at 37° C. during adsorption, then removed) was “comparable to the replication obtained in the control cells”. The viral replication ([2]; 40 μg/ml) was “viral replication was completely blocked”, the “viral replication, dose dependence” value ([2]; added post-infection, 1-40 μg/ml, HAU 24 and 48 h after infection) was “inhibited viral replication in a dose-dependent manner” and the “reversibility of antiviral activity” value ([2]; on discontinuing the treatment) was “not reversible on discontinuing the treatment”. The “viral replication after direct incubation of the virus with the substance” value ([2]; virus incubated with 40 μg/ml for one hour at 37° C., diluted 1:500, then used for infecting cells) was “no reduction in viral replication was observed”, the “expression of early nucleocapside proteins (NP and P)” value [3] was “inhibited, though to a lesser extent than that of the late proteins” and the “synthesis of late haemoagglutinin (H0-H1, H2) and matrix proteins (M)” value [3] was “almost totally inhibited”. For the same substance, the “toxic effects on uninfected cells” value ([4]; 20 μg/ml) was “without any toxic effects on the uninfected cells being detected”, the “toxic effects / cell mortality” value ([4]; 40 μg/ml) was “toxic effects were observed with an increase in cell mortality” and the “morphological alterations of the cells” value ([4]; 10-20 μg/ml) was “no morphological alterations of the cells were observed”. For the same substance, the cell number ([4]; 10-20 μg/ml, confluent monolayer, uninfected) was “a slight reduction in cell number was observed”, the “GSH levels in infected cells” value ([5]; infected MDCK cells, 24 h after infection) was “did not restore the GSH levels reduced by the infection” and the “intracellular GSH levels compared to untreated cells” value ([5]; uninfected MDCK cells) was “produced a reduction in intracellular GSH levels”. The “localisation of protein NP” value [6] was “the NP is retained in the nucleus”, the “protein M expression” value [6] was “significantly inhibited” and the “mortality versus untreated animals” value [7] was “significantly reduced the mortality”. The “animals that survived the infection” value ([7]; 2 HAU/mouse i.n.) was 60%, the apoptosis ([8]; infected cells) was 35% and the “cell death by apoptosis” value ([8]; uninfected cells, 5 μg/ml) was 8%. The “cell death by apoptosis” value ([8]; uninfected cells, 20 μg/ml) was 32% and the apoptosis ([8]; uninfected cells) was 37%.
